Literature values in patent US9662322B2 (TEVA PHARMACEUTICAL INDUSTRIES, LTD., priority 2014, dated 2017).

Conditions: cited from earlier work

For CCN(C(=O)c1c(O)c2c(Cl)cccc2n(C)c1=O)c1ccccc1 [Laquinimod sodium], the Oral bioavailability is listed as “high”.
